Measured values: patent US8450461B2, “Risperidone immunoassay” (Saladax Biomedical Inc., priority 2010, dated 2013)

Experiments:
Format in all cases: binding, mouse
[1] = tested on: polyclonal antibodies to risperidone, bleed G1M1; assay: Indirect competitive microtiter plate immunoassay (ELISA), cross-reactivity, polyclonal anti-serum bleed G1M1; details: polyclonal antibodies (Example 6a), relative to risperidone = 100%
Experimental: (§1) Ten female BALB/c mice were immunized i.p. with 100 μg/mouse of risperidone [9]-KLH immunogen, as prepared in Example 4, emulsified in Complete Freund's Adjuvant. The mice were boosted once, four weeks after the initial injection with 100 μg/mouse of the same immunogen emulsified in Incomplete Freund's Adjuvant. Twenty days after the boost, test bleeds containing polyclonal antibodies from each mouse were obtained by orbital bleed. The test bleeds were fractionated by centrifugation to yield anti-sera. The anti-sera from these test bleeds, which contain polyclonal antibodies to risperidone [9]-KLH immunogen, were evaluated in Examples 8a and 9.
(§2) The ELISA method for measuring risperidone concentrations was performed in polystyrene microtiter plates (Nunc MaxiSorp F8 Immunomodules) optimized for protein binding and containing 96 wells per plate. Each well was coated with risperidone [9]-BSA conjugate (prepared as in Example 5a) by adding 300 μL of risperidone [9]-BSA conjugate at 10 μg/mL in 0.05M sodium carbonate, pH 9.6, and incubating for three hours at room temperature. The wells were washed with 0.05M sodium carbonate, pH 9.6 and then were blocked with 375 μL of 5% sucrose, 0.2% sodium caseinate solution for 30 minutes at room temperature. After removal of the post-coat solution the plates were dried at 37° C. overnight.
as §2, with “[14]-BSA” for “[9]-BSA”, “5b)” for “5a)”
(§3) This procedure is to find the dilution of antibody or anti-serum to be tested for displacement as in Example 9. The ELISA method for screening risperidone antibodies (produced in Example 6) was performed with the microtiter plates that were sensitized with risperidone-BSA conjugate prepared in Examples 7a and 7b. The antibody screening assay was performed by diluting the murine serum from test bleeds (as in Example 6) containing polyclonal risperidone antibodies to 1:2,000, 1:[…] and 1:54,000 (volume/volume) in phosphate buffered saline containing 0.1% BSA and 0.01% thimerosal. […] (volume/volume) in phosphate buffered saline containing 0.1% BSA and 0.01% thimerosal. […]

[2] = tested on: polyclonal antibodies to risperidone, bleed G1M3; assay: Indirect competitive microtiter plate immunoassay (ELISA), cross-reactivity, polyclonal anti-serum bleed G1M3; details: polyclonal antibodies (Example 6a), relative to risperidone = 100%
Experimental: as §1, §2
as §2, with “[14]-BSA” for “[9]-BSA”, “5b)” for “5a)”
as §3

[3] = tested on: polyclonal antibodies to risperidone, bleed G2M1; assay: Indirect competitive microtiter plate immunoassay (ELISA), cross-reactivity, polyclonal anti-serum bleed G2M1; details: polyclonal antibodies (Example 6a), relative to risperidone = 100%
Experimental: as §1, §2
as §2, with “[14]-BSA” for “[9]-BSA”, “5b)” for “5a)”
as §3

[4] = tested on: polyclonal antibodies to risperidone, bleed G2M5; assay: Indirect competitive microtiter plate immunoassay (ELISA), cross-reactivity, polyclonal anti-serum bleed G2M5; details: polyclonal antibodies (Example 6a), relative to risperidone = 100%
Experimental: as §1, §2
as §2, with “[14]-BSA” for “[9]-BSA”, “5b)” for “5a)”
as §3

[5] = tested on: monoclonal antibody to risperidone 4B9-21; assay: Indirect competitive microtiter plate immunoassay (ELISA), cross-reactivity, monoclonal antibody 4B9-21; details: monoclonal antibody number 4B9-21 (Example 6b); relative to risperidone = 100%
Experimental: (§4) Mice from example 6a that were immunized with risperidone [9]-KLH prepared in 4 were used to produce monoclonal antibodies. For monoclonal antibodies starting three days before the fusion, the mice were injected i.p. with 400 μg (3 days before fusion), 200 μg (2 days before fusion), and 200 μg (1 day before fusion) of risperidone [9]-KLH in PBS/DMSO prepared in example 4. Spleen cells were isolated from the selected mice and fused with 2×10^7 SP2/0 cells with 50% polyethylene glycol 1500 according to the method of Coligan, J. E. et al., eds., Current Protocols in Immunology, 2.5.1-2.5.8, (1992), Wiley & Sons, NY. The fused cells were plated on ten 96-well plates in DMEM/F12 supplemented with 20% FetalClone I, 2% L-glutamine (100 mM) and 2% 50× HAT. Two to three weeks later, the hybridoma supernatant was assayed for the presence of anti-risperidone antibodies by ELISA (as in example 8b). Cells from the wells that gave positive ELISA results (example 8b) were expanded to 24 well plates. Clones positive by ELISA were subcloned twice by limiting dilution according to the method disclosed in Coligan, J. E. et al., eds., Current Protocols in Immunology, 2.5.8-2.5.17, 1992, Wiley & Sons, NY. Hybridoma culture supernatants containing monoclonal antibody from selected subclones were confirmed for risperidone binding by a competitive ELISA (example 9). […]

[6] = tested on: monoclonal antibody to risperidone 5D5-3; assay: Indirect competitive microtiter plate immunoassay (ELISA), cross-reactivity, monoclonal antibody 5D5-3; details: monoclonal antibody number 5D5-3 (Example 6b); relative to risperidone = 100%
Experimental: as §4

[7] = tested on: antibodies to risperidone (pool of antibodies); assay: Competitive immunoassay / screening with the pool of antibodies to risperidone
Experimental: The present invention relates to novel antibodies and monoclonal antibodies to risperidone and paliperidone. The antisera of the invention can be conveniently produced by immunizing host animals with the immunogens of this invention. Suitable host animals include rodents, such as, for example, mice, rats, rabbits, guinea pigs and the like, or higher mammals such as goats, sheep, horses and the like. […]
The ELISA method for determining IC50 values and cross-reactivity was performed with the microtiter plates that were sensitized with risperidone-BSA conjugates as described in Examples 7a and 7b. […] The assays were all performed by diluting the concentration of the anti-sera or monoclonal antibodies in each of the wells to the titer determined in Example 8a. […] Following the incubation for color development, 50 μL of stop solution (1.5% sodium fluoride in di H2O) was added to each well to stop the color development and after 20 seconds of shaking the absorbance was determined at 650 nm (Molecular Devices Plate Reader). The amount of antibody in a well was proportional to the absorbance measured and inversely proportional to the amount of risperidone in the sample. The IC50's of risperidone and paliperidone were determined by constructing dose-response curves with the absorbance in the wells plotted versus analyte concentration in the wells. […]

Row | binding of the antibodies to the compound (screening) ([7]; antibodies from immunized mice screened against the compound) | SMILES | Cross-reactivity of competitive immunoassay [1] [%] | Cross-reactivity of competitive immunoassay [2] [%] | Cross-reactivity of competitive immunoassay [3] [%] | Cross-reactivity of competitive immunoassay [4] [%] | Cross-reactivity of competitive immunoassay [5] [%] | Cross-reactivity of competitive immunoassay [6] [%] | percent cross-reactivities relative to risperidone ([7]; measured with this pool of antibodies, ratio of IC50 risperidone to IC50 paliperidone) [%]
1 | – | Cc1nc2n(c(=O)c1CCN1CCC(c3noc4cc(F)ccc34)CC1)CCCC2 [Risperidone, risperidone] | 100 | 100 | 100 | 100 | 100 | 100 | –
2 | substantial binding | Cc1nc2n(c(=O)c1CCN1CCC(c3noc4cc(F)ccc34)CC1)CCCC2O (stereo not shown) [Paliperidone, paliperidone] | 81 | 80 | 98 | 81 | – | – | 100±20
3 | – | Cc1nc2n(c(=O)c1CCN1CCC(c3noc4cc(F)ccc34)CC1)CC(O)CC2 (stereo not shown) [7-hydroxy-risperidone] | 50 | 66 | 65 | 69 | 30 | 39 | –
4 | – | Fc1ccc2c(C3CCNCC3)noc2c1 [N-dealkyl-risperidone] | 0.02 | 0.07 | 0.09 | 0.1 | – | – | –
